Data published in patent US8937183B2, “Detection of hydrogen peroxide” (Promega Corporation, priority 2011, dated 2015).

What was measured:
[1] = test system: Jurkat cells; assay: Detection of reactive oxygen generation in cells treated with menadione or 4-aminobiphenyl, Jurkat; type: cell-based; details: for averaged bioluminescence: 60 minutes 37° C.
Experimental: (§1) In this example, various compounds shown to react with hydrogen peroxide were incubated with cells treated with menadione and 4-aminobiphenyl, two compounds that can generate reactive oxygen species (ROS). Menadione causes the direct production of reactive oxygen within the cell and is a very strong inducer of a ROS effect (Sun, J S et. al. Cell Mol Life Sci (1997) vol 53 pp 967-76). 4-aminobiphenyl is believed to require metabolic conversion to a quinine-like structure before being able to induce the formation of a ROS (Makena, P and Chung, K T. Environ. Mol. Mutagen. (2007), vol 48, pp 404-413).
(§2) A 40 mM solution of 4-aminobiphenyl (Sigma A2898-1g) was made by dissolving 2.5 mg in 375 μl of DMSO (Fluka) to create a 40 mM solution. 50 μl of 4 mg/ml PBI 4458 in DMSO was diluted to 1 ml with HBSS buffer (Invitrogen), and 100 μl added to wells A1 and A2 of a microtiter plate. A 10 μl sample of 40 mM 4-aminobiphenyl was mixed with 190 μl of the remaining PBI 4458 in HBSS, and 60 μl added to wells B1 and B2 and 30 μl to wells C1 and C2. A 10 μl sample of 40 mM menadione in DMSO was mixed with 190 μl of the remaining PBI 4458 in HBSS, and 60 μl added to wells D1 and D2 and 30 μl to E1 and E2. The volume in wells B1 to E2 was then adjusted to 100 μl by addition of remaining PBI 4458 in HBSS.
(§3) 50 μl of 4 mg/ml PBI 4480 in DMSO was diluted to 1 ml with HBSS buffer, and 100 μl placed in wells A3 and A4 of the microtiter plate. A 10 μl sample of 40 mM 4 aminobiphenyl was mixed with 190 μl of the remaining PBI 4480 in HBSS, and 60 μl added to wells B3 and B4 and 30 μl to wells C3 and C4. A 10 μl sample of 40 mM menadione in DMSO was mixed with 190 μl of the remaining PBI 4480 in HBSS, and 60 μl added to wells D3 and D4 and 30 μl added to wells E3 and E4. The volume in wells B3 to E4 was then adjusted to 100 μl by addition of left over PBI 4480 in HBSS.
(§4) 50 μl of 4 mg/ml PBI 3048 in DMSO was diluted to 1 ml with HBSS, and 100 μl added to wells A5 and A6 of the microtiter plate. A 10 μl sample of 40 mM 4 aminobiphenyl was mixed with 190 μl of the remaining PBI 3048 in HBSS, and 60 μl added to wells B5 and B6 and 30 μl added to wells C5 and C6. A 10 μl sample of 40 mM menadione in DMSO was mixed with 190 μl of the remaining PBI 3048 in HBSS, and 60 μl added to wells D5 and D6 and 30 μl added to wells E5 and E6. The volume in wells B5 to E6 was then adjusted to 100 μl by addition of the remaining PBI 3048 in HBSS.
(§5) Two cell culture plates were seeded with cells resuspended in HBSS. One plate contained 20,000 Jurkat cells/well in wells A1-H6. The other plate contained 20,000 HepG2 cells/well in wells A1-H6. Both plates were incubated overnight in DMEM with 10% fetal bovine serum (FBS). The media from the HepG2 cells was removed, discarded, and replaced with 50 μl of HBSS. A 50 μl sample of wells A1-H6 from the plate with the various PBI compounds was transferred to the corresponding wells in the two cell culture plates, and incubated for 60 minutes in a 37° C., 5% CO2 incubator.
(§6) 50 μl of LDR (Example 23) and 25 μl of 1 mM D-cysteine in 100 mM HEPES buffer, pH 7.5 was added to all wells of a new luminometer plate. After incubation, a 25 μl sample of wells A1-H6 containing Jurkat cells was added to wells A1-H6 of the new luminometer plate, and a 25 μl sample of wells A1-H6 containing HepG2 cells was added to wells A7-H12 of the new luminometer plate. The plate was incubated at room temperature for 15 minutes, and bioluminescence detected on a GloMax® luminometer.
(§7) The bioluminescence from the duplicate samples was averaged and compared to the values of the cells in A row (Table 4).

[2] = test system: HepG2 cells; assay: Detection of reactive oxygen generation in cells treated with menadione or 4-aminobiphenyl, HepG2; type: cell-based; details: for response of signal to menadione or 4-aminobiphenyl (in words): HepG2; for averaged bioluminescence: 60 minutes 37° C.
Experimental: as §1, §2, §3, §4, §5, §6, §7

| Structure (SMILES) | response of signal to menadione or 4-aminobiphenyl (in words) [1] | averaged bioluminescence ([1]; 300 μM 4ABP) | averaged bioluminescence ([1]; 300 μM Menadione) | averaged bioluminescence ([1]; 600 μM 4ABP) | averaged bioluminescence ([1]; 600 μM Menadione) | averaged bioluminescence ([1]; No Effector) | response of signal to menadione or 4-aminobiphenyl (in words) [2] | averaged bioluminescence ([2]; HepG2, 300 μM 4ABP) | averaged bioluminescence ([2]; HepG2, 300 μM Menadione) | averaged bioluminescence ([2]; HepG2, 600 μM 4ABP) | averaged bioluminescence ([2]; HepG2, 600 μM Menadione) | averaged bioluminescence ([2]; HepG2, No Effector) |
| --- | --- | --- | --- | --- | --- | --- | --- | --- | --- | --- | --- | --- |
| CC1(C)OB(/C=C/COc2ccc3nc(C#N)sc3c2)OC1(C)C [PBI 4458, (E)-6-((3-(4,4,5,5-tetramethyl-1,3,2-dioxaborolan-2-yl)allyl)oxy)-benzo[d]thiazole-2-carbonitrile] | above those for the cells that were not given any effector | 213,059 | 742,717 | 195,096 | 895,269 | 174,206 | above those for the cells that were not given any effector | 163,031 | 622,230 | 169,952 | 728,404 | 117,111 |
| O=C(O)C1CSC(c2nc3ccc(OCc4ccc(B(O)O)cc4)cc3s2)=N1 (stereo not drawn) [PBI 3048] | do not show as clear of a response | 363,182 | 434,344 | 366,188 | 403,013 | 413,753 | do not show as clear of a response | 364,353 | 426,802 | 383,471 | 408,177 | 407,917 |
| CC1(C)OB(c2ccc(COc3ccc4nc(C#N)sc4c3)c3ccccc23)OC1(C)C [PBI 4480, 6-((4-(4,4,5,5-tetramethyl-1,3,2-dioxaborolan-2-yl)naphthalen-1-yl)methoxy)benzo[d]thiazole-2-carbonitrile] | do not show as clear of a response | 29,810 | 29,806 | 29,277 | 27,535 | 34,646 | do not show as clear of a response | 20,574 | 20,788 | 21,023 | 20,509 | 19,627 |
